Measurements: publication PMC8175484, “Identification and function of ETH receptor networks in the silkworm Bombyx mori” (Scientific Reports, 2021)

Legend:
[1] = tested on: isolated CNS of pharate 5th instar larvae; test: Electrophysiology: extracellular motor bursts recorded in nerves of abdominal ganglia of the isolated intact or desheathed CNS; design: species or system Bombyx mori; conditions: for ecdysis burst pattern, CCAP or MIPs applied alone: CCAP alone n = 4, MIP-I only or MIP-I-VII mixture n = 5; for time to burst patterns characteristic for pre-ecdysis I and II in dorsal and ventral nerves: isolated nerve cords
Experimental: Specific roles of various neuropeptides produced by the ETHR neurons were determined using electrophysiology technique in the isolated intact or desheathed CNS. Sharp forceps were used to remove the neurolema on the dorsal or ventral side of selected ganglia under physiological saline (see above) and dorsal or ventral nerves of the abdominal ganglia (AG1-7) were attached to plastic suction electrodes. A mixture or individual neuropeptides were then applied in a 300 μl saline bath and induced extracellular motor bursts were recorded using differential AC amplifier 1700 (A-M Systems, Carlsborg, WA, USA) and Axoscope program (Axon Instruments, Union City, CA, USA). Synthetic peptides used in the assay are listed in Supplementary Table S2 online. A mixture of MIPs was adjusted according to its copy number in the precursor: MIP-I (five copies), MIP-II,V (two copies), MIP-III,IV,VI,VII (one copy each)[28].

[2] = tested on: ETHR-A (BNGR-A6-A); test: Aequorin-based calcium mobilization assay, ETHR-A transiently expressed in CHO-K1 cells; assay type: cell-based, Bombyx mori
Experimental: Pharmacological characterization of ETHR-A (BNGR-A6-A) and ETHR-B (BNGR-A6-B) receptors were carried out in the Chinese hamster ovary (CHO-K1) cells. For expression in CHO-K1 cells, the entire open reading frame for each ETHR was inserted into pcDNA3.1 ( +) vector (Invitrogen, Carlsbad, CA, USA) with a mammalian Kozak translation initiation sequence incorporated at 5´ end and confirmed by DNA sequencing prior to use. The primers used to clone BNGR-A6-A and BNGR-A6-B are listed in Supplementary Table S1 online. For the assay, each receptor was expressed together with the bioluminescent calcium-sensitive reporter aequorin and chimeric Gqs alpha subunit protein that couples receptor activation to the phospholipase C and intracellular Ca^2+ mobilization. […]
The procedures used for the receptor assays were described previously. […] Following cell application to a well, emitted luminescence corresponding to the ligand-induced intracellular Ca^2+ release was monitored in 0.5 s intervals for 20 s using the GloMax-Multi Detection System (Promega, Madison, WI, USA). […] All experiments were replicated three times and collected output data calculated and further analyzed in Excel (Microsoft, Redmond, WA, USA) and GraphPad Prism 6 software (GraphPad Software Inc.). The concentration-dependent response curves, as well as the corresponding EC50 values were calculated using the Prism software. […]

[3] = tested on: pharate larvae; test: ETH injection into pharate larvae, ecdysis behavior; assay type: in vivo, Bombyx mori; conditions: pharate larvae injected with ETH at 8–15 h prior to ecdysis; fail to shed the old cuticle
Experimental: Under normal conditions, the ecdysis behavior lasts for ∼10 min and terminates immediately after the old cuticle is completely shed from the last abdominal segment. However, pharate larvae injected with ETH at 8–15 h prior to ecdysis fail to shed the old cuticle and show strong ecdysis contractions for 1–2 h. […] To determine a site of sensory input that terminates the ecdysis behavior, we peeled off a narrow ring of the old cuticle on abdominal segments 1, 3, 5 or 6 of late pharate 5th instar larvae 1–3 h prior to ecdysis. These larvae invariably initiated normal pre-ecdysis behaviors at the expected time and after ∼1 h switched to peristaltic waves of ecdysis contractions. […] In spite of presence of the old cuticle on the head, thorax and anterior abdomen, strong ecdysis contractions ceased immediately after the posterior cuticle was shed from the last abdominal segment in all larvae (n = 14).

## AWQDLNSAWa [MIP-I]
[1]; desheathed CNS
  ecdysis burst pattern, CCAP or MIPs applied alone: weak prolonged synchronous bursts or no rhythmic pattern

## GQSNNNRGRVLRCFFNAVTCF-OH [AST-CC, allatostatin CC, allatostatin CC of Bombyx mori]
[1]; desheathed CNS dissected 2–6 h prior to ecdysis, 0,3–1 μM, n = 14
  time to onset of ecdysis bursts: 5 to 12 min
[1]; desheathed CNS, 0,3–1 μM, n = 9
  response (ecdysis motor pattern) of earlier pharate or feeding stages: irresponsive

## NADLINSLLALPKDMNDAa [PDF, pigment dispersing factor, pigment dispersing factor of Bombyx mori]
[1]; desheathed CNS, 0.3–1 μM, n = 8
  time to onset of pre-ecdysis II bursts (asynchronous motoneuron activity) in ventral nerves of AG2-7: 3 to 5 min

## PFCNAFTGCa [CCAP, crustacean cardioactive peptide]
[1]; desheathed CNS
  ecdysis burst pattern, CCAP or MIPs applied alone: less effective

## SFIKPN.NVPRVa [PETH, pre-ecdysis triggering hormone, pre-ecdysis triggering hormone from B. mori, synthetic peptide]
[2]; CHO-K1 cells co-expressing aequorin and chimeric Gqs alpha subunit, luminescence as % of maximum peak, mean of n = 3, read-out: EC50, BomETHR-A
  EC50: 9.43 nM
[2]; from concentration-response curves in CHO cells
  fold lower sensitivity of ETHR-A to PETH than to ETH: ~ 20 fold
[1]; 0.3–1 μM, n = 14
  time to burst patterns characteristic for pre-ecdysis I and II in dorsal and ventral nerves: 5 to 7 min

## SNEAISPFDQGMMGYVIKTNKNIPRMa [ETH, ecdysis triggering hormone, ecdysis triggering hormone from B. mori, synthetic peptide]
[1]; desheathed CNS activated by ETH, n = 10
  time to initiation of clear ecdysis bursts after ETH: 27 to 35 min
[1]; isolated CNS of pharate larvae treated with ETH, dorsal nerves AG4-7
  duration of pre-ecdysis before switch to ecdysis motor patterns (ecdysis activation): ~ 40 min
[1]; 0.3–1 μM, n = 14
  time to burst patterns characteristic for pre-ecdysis I and II in dorsal and ventral nerves: 5 to 7 min
[3]
  duration of strong ecdysis contractions: 1 to 2 h
